Experimental data reported in patent US20030129629A1, “Methods and compositions for the identification, assessment, prevention, and therapy of human cancers” (Millennium Pharmaceuticals, Inc., priority 2000, published 2003).
Read-outs that look alike come from different tables or passages of the source.

Experiments:
[1] = test system: 60 cancer cell lines (NCI 60 cancer cell line series); test: NCI-DTP in vitro cancer screen, sulforhodamine B (SRB) growth inhibition, 48 hour exposure; assay type: cell-based, human
Method in brief: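 NCI-DTP panel of 60 cancer cell lines plated day 0 at line-specific densities, exposed from day 1 to compound at 5 ten-fold-spaced doses in duplicate wells. After 48 h, cell mass stained with sulforhodamine B; −log GI50 derived from dose–response curves, averaged, and classed Low, Medium or High sensitivity.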

[2] = test system: 60 cancer cell lines (NCI 60 cancer cell line series); settings: cited from earlier work

COc1cccc2c1C(=O)c1c(O)c3c(c(O)c1C2=O)C[C@@](O)(C(=O)CO)C[C@@H]3OC1CC(N)CC(C)O1.Cl (stereo partly shown) [Deoxydoxorubicin]
classification of cell line as Low(1), Medium(2), High(3) sensitivity to compound ([1]; Breast BT-549 CL5013): 2
classification of cell line as Low(1), Medium(2), High(3) sensitivity to compound ([1]; Breast MCF7/ADRr CL5002): 1
classification of cell line as Low(1), Medium(2), High(3) sensitivity to compound ([1]; Breast MDA-N CL5012): 2
classification of cell line as Low(1), Medium(2), High(3) sensitivity to compound ([1]; CNS SF-268 CL12014): 2
classification of cell line as Low(1), Medium(2), High(3) sensitivity to compound ([1]; CNS SF-295 CL12015): 2
classification of cell line as Low(1), Medium(2), High(3) sensitivity to compound ([1]; CNS SF-539 CL12016): 2
classification of cell line as Low(1), Medium(2), High(3) sensitivity to compound ([1]; CNS SNB-19 CL12002): 2
classification of cell line as Low(1), Medium(2), High(3) sensitivity to compound ([1]; CNS SNB-75(I) CL12005): 2
classification of cell line as Low(1), Medium(2), High(3) sensitivity to compound ([1]; CNS U251(I) CL12009): 2
classification of cell line as Low(1), Medium(2), High(3) sensitivity to compound ([1]; Colon COLO-250 CL4010): 2
classification of cell line as Low(1), Medium(2), High(3) sensitivity to compound ([1]; Colon HCT-15 CL4015): 1
classification of cell line as Low(1), Medium(2), High(3) sensitivity to compound ([1]; Colon HT29(I) CL4001): 2
classification of cell line as Low(1), Medium(2), High(3) sensitivity to compound ([1]; Colon KM12 CL4017): 2
classification of cell line as Low(1), Medium(2), High(3) sensitivity to compound ([1]; Leukemia CCRF-CEM(I) CL7003): 2
classification of cell line as Low(1), Medium(2), High(3) sensitivity to compound ([1]; Leukemia K562(I) CL7005): 2
classification of cell line as Low(1), Medium(2), High(3) sensitivity to compound ([1]; Leukemia RPMI-8226(I) CL7010): 2
classification of cell line as Low(1), Medium(2), High(3) sensitivity to compound ([1]; Leukemia SR CL7019): 3
classification of cell line as Low(1), Medium(2), High(3) sensitivity to compound ([1]; Melanoma LOX IMVI CL10001): 2
classification of cell line as Low(1), Medium(2), High(3) sensitivity to compound ([1]; Melanoma M14 CL10014): 2
classification of cell line as Low(1), Medium(2), High(3) sensitivity to compound ([1]; Melanoma MALME-3M CL10002): 2
classification of cell line as Low(1), Medium(2), High(3) sensitivity to compound ([1]; Melanoma SK-MEL-28 CL10008): 1
sensitivity classification Low(1)/Medium(2)/High(3) ([1]; NSCLC NCI-H23(I) CL1001): 2
sensitivity classification Low(1)/Medium(2)/High(3) ([1]; NSCLC NCI-H522 CL1003): 2
sensitivity classification Low(1)/Medium(2)/High(3) ([1]; Ovarian IGROV1 CL6010): 2
sensitivity classification Low(1)/Medium(2)/High(3) ([1]; Ovarian OVCAR-3 CL6001): 2
sensitivity classification Low(1)/Medium(2)/High(3) ([1]; Ovarian OVCAR-4 CL6002): 2
sensitivity classification Low(1)/Medium(2)/High(3) ([1]; Ovarian OVCAR-8 CL6005): 2
sensitivity classification Low(1)/Medium(2)/High(3) ([1]; Ovarian SK-OV-3 CL6011): 2
sensitivity classification Low(1)/Medium(2)/High(3) ([1]; Prostate DU-145 CL11003): 2
sensitivity classification Low(1)/Medium(2)/High(3) ([1]; Prostate PC-3(I) CL11001): 2
sensitivity classification Low(1)/Medium(2)/High(3) ([1]; Renal A498 CL9013): 2
sensitivity classification Low(1)/Medium(2)/High(3) ([1]; Renal SN12C CL9008): 2
sensitivity classification Low(1)/Medium(2)/High(3) ([1]; Renal TK10 CL9024): 1
sensitivity classification Low(1)/Medium(2)/High(3) ([1]; Renal UO-31 CL9004): 1
−Log (GI50) ([2]; CNS SF-268 CL12014): 7.3
−Log (GI50) ([2]; CNS U251(I) CL12009): 7.6
−Log (GI50) ([2]; Colon HT29(I) CL4001): 7.5
−Log (GI50) ([2]; Melanoma UACC-62 CL10020): 7.6
−Log (GI50) ([2]; NSCLC HOP-92 CL1029): 7.4
−Log (GI50) ([2]; Ovarian SK-OV-3 CL6011): 7.3
−Log (GI50) ([2]; Prostate DU-145 CL11003): 7.6

CC(=O)O[C@H]1C(=O)[C@@]2(C)[C@H]([C@H](OC(=O)c3ccccc3)[C@]3(O)C[C@H](OC(=O)[C@H](O)[C@@H](NC(=O)c4ccccc4)c4ccccc4)C(C)=C1C3(C)C)[C@]1(OC(C)=O)CO[C@@H]1C[C@@H]2O [TAXOL, paclitaxel, reference compound]
classification of cell line as Low(1), Medium(2), High(3) sensitivity to compound ([1]; Breast BT-549 CL5013): 2
classification of cell line as Low(1), Medium(2), High(3) sensitivity to compound ([1]; Breast MCF7/ADRr CL5002): 1
classification of cell line as Low(1), Medium(2), High(3) sensitivity to compound ([1]; Breast MDA-MB-231 CL5005): 2
classification of cell line as Low(1), Medium(2), High(3) sensitivity to compound ([1]; Breast MDA-MB-435 CL5011): 3
classification of cell line as Low(1), Medium(2), High(3) sensitivity to compound ([1]; Breast MDA-N CL5012): 3
classification of cell line as Low(1), Medium(2), High(3) sensitivity to compound ([1]; CNS SF-268 CL12014): 2
classification of cell line as Low(1), Medium(2), High(3) sensitivity to compound ([1]; CNS SF-295 CL12015): 2
classification of cell line as Low(1), Medium(2), High(3) sensitivity to compound ([1]; CNS SF-539 CL12016): 2
classification of cell line as Low(1), Medium(2), High(3) sensitivity to compound ([1]; CNS SNB-19 CL12002): 2
classification of cell line as Low(1), Medium(2), High(3) sensitivity to compound ([1]; CNS U251(I) CL12009): 2
classification of cell line as Low(1), Medium(2), High(3) sensitivity to compound ([1]; Colon HCT-15 CL4015): 1
classification of cell line as Low(1), Medium(2), High(3) sensitivity to compound ([1]; Colon HCT-116 CL4003): 3
classification of cell line as Low(1), Medium(2), High(3) sensitivity to compound ([1]; Colon HT29(I) CL4001): 3
classification of cell line as Low(1), Medium(2), High(3) sensitivity to compound ([1]; Colon KM12 CL4017): 2
classification of cell line as Low(1), Medium(2), High(3) sensitivity to compound ([1]; Leukemia MOLT-4 CL7006): 2
classification of cell line as Low(1), Medium(2), High(3) sensitivity to compound ([1]; Leukemia RPMI-8226(I) CL7010): 3
classification of cell line as Low(1), Medium(2), High(3) sensitivity to compound ([1]; Melanoma M14 CL10014): 2
sensitivity classification Low(1)/Medium(2)/High(3) ([1]; NSCLC NCI-H23(I) CL1001): 2
sensitivity classification Low(1)/Medium(2)/High(3) ([1]; NSCLC NCI-H332M CL1017): 2
sensitivity classification Low(1)/Medium(2)/High(3) ([1]; Ovarian IGROV1 CL6010): 2
sensitivity classification Low(1)/Medium(2)/High(3) ([1]; Ovarian OVCAR-4 CL6002): 1
sensitivity classification Low(1)/Medium(2)/High(3) ([1]; Ovarian OVCAR-8 CL6005): 2
sensitivity classification Low(1)/Medium(2)/High(3) ([1]; Ovarian SK-OV-3 CL6011): 2
sensitivity classification Low(1)/Medium(2)/High(3) ([1]; Prostate DU-145 CL11003): 2
sensitivity classification Low(1)/Medium(2)/High(3) ([1]; Prostate PC-3(I) CL11001): 2
sensitivity classification Low(1)/Medium(2)/High(3) ([1]; Renal 786-0 CL9018): 2
sensitivity classification Low(1)/Medium(2)/High(3) ([1]; Renal ACHN CL9023): 1
sensitivity classification Low(1)/Medium(2)/High(3) ([1]; Renal CAKI-1 CL9015): 1
sensitivity classification Low(1)/Medium(2)/High(3) ([1]; Renal RXF-393 CL9016): 2
sensitivity classification Low(1)/Medium(2)/High(3) ([1]; Renal SN12C CL9008): 2
sensitivity classification Low(1)/Medium(2)/High(3) ([1]; Renal UO-31 CL9004): 1
−Log (GI50) ([2]; Breast MCF7/ADRr CL5002): 5.5
−Log (GI50) ([2]; Colon COLO-250 CL4010): 8.0
−Log (GI50) ([2]; Melanoma SK-MEL-5 CL10007): 6.3
−Log (GI50) ([2]; Melanoma UACC-62 CL10020): 8.1
−Log (GI50) ([2]; Melanoma UACC-257 CL10021): 7.1
−Log (GI50) ([2]; NSCLC A549/ATCC CL1004): 8.0
−Log (GI50) ([2]; NSCLC EKVX CL1008): 4.8
−Log (GI50) ([2]; NSCLC HOP-62 CL1026): 7.4
−Log (GI50) ([2]; NSCLC HOP-92 CL1029): 5.7
−Log (GI50) ([2]; Ovarian OVCAR-5 CL6003): 6.8
